This note sets out measurements from US20230391786A1, “cGAS INHIBITORS” (Eli Lilly and Company, priority 2022, published 2023).

Assay [1] concerns cGAS activity in THP1 cells (IFNb as marker). Briefly: Cellular assay to measure cGAS activity (IFNb production in PMA-differentiated THP1 cells stimulated by RDG-Adenovirus-GFP). The class given is cell-based, human. Particulars: Homo sapiens, THP-1, THP1 cells, PMA differentiated, RDG-Adenovirus-GFP 1000 MOI, IFNb AlphaLISA, overnight incubation; read-out: IC50 (μM), Cellular assay for Compounds 95-348. The procedure, abridged: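 The readout is secreted IFNb measured by AlphaLISA after overnight compound exposure. THP1 cells, differentiated with PMA for 24 h and rested overnight, were infected with RDG-Adenovirus-GFP (1000 MOI, 4 h) before compounds were added; IC50 came from a 4-parameter logistic fit of inhibition against log concentration.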

Assay [2] concerns the target recombinant human cGAS (Homo sapiens (Human), UniProt Q8N884). Briefly: In vitro inhibition assay of cGAS activity (cGAMP production, RapidFire mass spectrometry). The format is biochemical. Particulars: 10 nM recombinant human cGAS, 60 nM 75-bp dsDNA, ATP, GTP, room temperature 3 hours, read-out: IC50 (μM), In vitro inhibition assay for Compounds 95-348. The procedure, abridged:
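Product cGAMP was quantified by RapidFire MS against a difluoro-cGAMP internal standard after a formic acid quench. The reaction contained 10 nM recombinant full-length human cGAS, 75-bp dsDNA (60 nM), ATP and GTP (50 μM) and ran for 3 h at room temperature. IC50 values came from 4-parameter nonlinear regression.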

A word on the IC50: it is the concentration that inhibits the measured activity by half.

Chain of recombinant human cGAS (Q8N884 whole entry): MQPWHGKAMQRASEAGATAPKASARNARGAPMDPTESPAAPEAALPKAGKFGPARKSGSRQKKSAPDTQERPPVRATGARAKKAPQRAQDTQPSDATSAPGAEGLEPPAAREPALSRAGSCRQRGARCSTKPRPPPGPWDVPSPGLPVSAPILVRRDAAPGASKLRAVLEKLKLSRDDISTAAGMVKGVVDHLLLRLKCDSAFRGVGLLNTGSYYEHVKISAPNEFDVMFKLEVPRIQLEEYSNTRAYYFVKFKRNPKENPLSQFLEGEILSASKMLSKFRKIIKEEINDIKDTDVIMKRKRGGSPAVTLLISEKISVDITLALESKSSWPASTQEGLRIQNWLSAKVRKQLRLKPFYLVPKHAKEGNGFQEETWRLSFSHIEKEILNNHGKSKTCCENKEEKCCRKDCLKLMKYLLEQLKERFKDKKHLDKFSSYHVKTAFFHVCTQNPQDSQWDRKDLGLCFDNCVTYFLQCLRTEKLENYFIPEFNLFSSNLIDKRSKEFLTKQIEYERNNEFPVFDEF

Consider `O=C(CO)Nc1cc(Cl)c(Cl)c2[nH]nc(-c3cn[nH]c3)c12` [Example 336, N-(6,7-Dichloro-3-(1H-pyrazol-4-yl)-1H-indazol-4-yl)-2-hydroxyacetamide], for which the IC50 in assay [1] stood at 0.492 µM; in assay [2], 0.0385 µM.

As to `O=C(Nc1cc(Cl)c(Cl)c2[nH]nc(-c3cn[nH]c3)c12)C(F)F` [Example 337, N-(6,7-Dichloro-3-(1H-pyrazol-4-yl)-1H-indazol-4-yl)-2,2-difluoroacetamide], the IC50 turned out to be 0.281 µM in assay [1] and 0.0124 µM in assay [2].

Turning to `OCCCOc1cc(Cl)c(Cl)c2[nH]c(CO)c(-c3cn[nH]c3)c12` [Example 338, 3-((6,7-Dichloro-2-(hydroxymethyl)-3-(1H-pyrazol-4-yl)-1H-indol-4-yl)oxy)propan-1-ol], the half-inhibitory concentration (IC50) in assay [1] turned out to be 0.198 µM; in assay [2], 0.00474 µM.

Take `CN1CCn2c(c(-c3cn[nH]c3)c3c(OCCCO)cc(Cl)c(Cl)c32)C1=O` [Example 339, 6,7-Dichloro-9-(3-hydroxypropoxy)-2-methyl-10-(1H-pyrazol-4-yl)-3,4-dihydropyrazino[1,2-a]indol-1(2H)-one]: the 50% inhibitory concentration (IC50) in assay [1] is 0.426 µM; in assay [2], 0.00789 µM.

Regarding `N#CCOc1cc(Cl)c(Cl)c2[nH]c(CO)c(-c3cn[nH]c3)c12` [Example 340, 2-((6,7-Dichloro-2-(hydroxymethyl)-3-(1H-pyrazol-4-yl)-1H-indol-4-yl)oxy)acetonitrile], the IC50 in assay [1] was 0.516 µM; in assay [2] it was 0.0102 µM.

For `COc1cc2c(-c3cn[nH]c3)cn(-c3cccnn3)c2cc1Cl` [Example 341, 6-Chloro-5-methoxy-3-(1H-pyrazol-4-yl)-1-(pyridazin-3-yl)-1H-indole], the half-inhibitory concentration (IC50) came out at 0.8 µM in assay [1] and 0.0276 µM in assay [2].

With `COc1cc2c(-c3cn[nH]c3)cn(-c3ccc(CO)nn3)c2cc1Cl` [Example 342, (6-(6-chloro-5-methoxy-3-(1H-pyrazol-4-yl)-1H-indol-1-yl)pyridazin-3-yl)methanol], the 50% inhibitory concentration (IC50) in assay [1] was 0.964 µM; in assay [2], 0.0261 µM.

On to `CCOc1cc(Cl)c(Cl)c2c1c(-c1cn[nH]c1)c1n2CC[C@@H]1NC(=O)CO` [Example 343, (S)—N-(5,6-Dichloro-8-ethoxy-9-(1H-pyrazol-4-yl)-2,3-dihydro-1H-pyrrolo[1,2-a]indol-1-yl)-2-hydroxyacetamide], for which the concentration for half-maximal inhibition (IC50) in assay [1] worked out at 0.565 µM; in assay [2], 0.00614 µM.

On to `N#CCOc1cc(Cl)c(Cl)c2c1c(-c1cn[nH]c1)c1n2CC[C@@H]1NC(=O)CO` [Example 344, (S)—N-(5,6-Dichloro-8-(cyanomethoxy)-9-(1H-pyrazol-4-yl)-2,3-dihydro-1H-pyrrolo[1,2-a]indol-1-yl)-2-hydroxyacetamide], for which the 50% inhibitory concentration (IC50) was determined as 0.902 µM in assay [1] and 0.00338 µM in assay [2].

For `N#CCOc1cc(Cl)c(Cl)c2c1c(-c1cn[nH]c1)c1n2CCC1CO` (stereo not shown) [Example 347, 2-((5,6-Dichloro-1-(hydroxymethyl)-9-(1H-pyrazol-4-yl)-2,3-dihydro-1H-pyrrolo[1,2-a]indol-8-yl)oxy)acetonitrile], the IC50 in assay [1] came to 0.865 µM; in assay [2] it was 0.0122 µM.

In the case of `OCCCOc1cc(Cl)c(Cl)c2c1c(-c1cn[nH]c1)c1n2CC(O)CC1` (stereo not shown) [Example 348, 3,4-Dichloro-1-(3-hydroxypropoxy)-10-(1H-pyrazol-4-yl)-6,7,8,9-tetrahydropyrido[1,2-a]indol-7-ol], the results for the 50% inhibitory concentration (IC50) in assay [1] and in assay [2] were 0.365 µM and 0.00695 µM, respectively.
